Activity calls are given as the source filed them. The rule behind the calls is not given here.
Legend:
Klebsiella pneumoniae [1] = test: Induction of morphological changes in carbapenem resistant Klebsiella pneumoniae ATCC BAA-1705 assessed as inhibition of cell division by measuring filamented cells at MIC concentration incubated for 60 mins by SEM analysis; type: functional, organism-based
Rattus norvegicus = species: Rattus norvegicus; test: Induction of wound healing in surgically-induced Albino Wistar rat wound model inoculated with methicillin-resistant Staphylococcus aureus assessed as dense epithelial-tissue layers at 10 uM measured after 11 days by H&E staining based analysis; type: functional; details: time 11.0 day
Cell membrane [2] = test: Induction of inner membrane permeabilization in methicillin-resistant Staphylococcus aureus assessed as increase in fluorescence at 0.5 to 1 times of MIC incubated for 60 mins by PI staining based fluorescence analysis; type: subcellular
Staphylococcus aureus [3] = test: Antibiofilm activity against methicillin-resistant Staphylococcus aureus assessed as increase in dead cell proportion at MIC incubated overnight by SYTO9/PI staining based fluorescence analysis; type: functional, organism-based
Staphylococcus aureus [4] = test: Antibacterial activity against patient-derived methicillin-resistant Staphylococcus aureus assessed as inhibition of bacterial growth at 25 to 100 uM incubated overnight by spotting assay; type: functional, organism-based; details: dose 25-100 µM
Escherichia coli [5] = test: Induction of morphological changes in Escherichia coli assessed as cellular destruction at MIC concentration incubated for 6 hrs by AFM analysis; type: functional, organism-based
Pseudomonas aeruginosa [6] = test: Induction of morphological changes in Pseudomonas aeruginosa assessed as inhibition of cell division by measuring elongated cells at MIC concentration incubated for 60 mins by SEM analysis; type: functional, organism-based
Cell membrane [7] = test: Induction of outer membrane permeabilization in Pseudomonas aeruginosa at 0.5 to 1 times of MIC incubated for 5 to 20 mins by fluorescence based NPN uptake assay; type: subcellular; details: time 5-20 min
Klebsiella pneumoniae [8] = test: Antibiofilm activity against preformed biofilm in Klebsiella pneumoniae assessed as decrease in cell viability at 0.5 times of MIC incubated overnight by MTT assay relative to control; type: functional
Escherichia coli [9] = test: Antibiofilm activity against Escherichia coli in the presence of Na+; type: functional, organism-based
U-937 [10] = test: Immunomodulatory activity in human U-937 cells assessed as effect on IL-6 expression level at 5 to 10 uM incubated for 24 hrs by radioimmunoprecipitation based dot-plot analysis; type: functional, cell-based; details: dose 5-10 µM
Escherichia coli [11] = test: Induction of morphological changes in Escherichia coli at MIC concentration incubated for 6 hrs by AFM analysis; type: functional, organism-based
Staphylococcus aureus [12] = test: Induction of morphological changes in methicillin-resistant Staphylococcus aureus assessed as membrane damage at MIC concentration incubated for 60 mins by SEM analysis; type: functional, organism-based
[13] = Cytotoxicity against mouse RAW264.7 cells assessed as cell viability at 12.5 uM incubated for 24 hrs by MTT assay relative to control; type: toxicity, cell-based; details: read-out: Activity
Pseudomonas aeruginosa [14] = test: Antibiofilm activity against Pseudomonas aeruginosa in the presence of Na+; type: functional, organism-based
Staphylococcus aureus [15] = test: Antibiofilm activity against preformed biofilm in methicillin-resistant Staphylococcus aureus assessed as decrease in cell viability at 0.5 times of MIC incubated overnight by MTT assay relative to control; type: functional
Staphylococcus aureus [16] = test: Antibacterial activity against methicillin-resistant Staphylococcus aureus assessed as induction of cellular damage at MIC concentration incubated for 30 mins by SYTO9/PI staining based fluorescence microscopic analysis; type: functional, organism-based
Pseudomonas aeruginosa [17] = test: Antibiofilm activity against Pseudomonas aeruginosa assessed as clearance of preformed biofilm at 0.5 times of MIC incubated for 24 hrs by CV staining based analysis relative to control; type: functional
Cell membrane [18] = test: Induction of cytoplasmic membrane depolarization in methicillin-resistant Staphylococcus aureus assessed as increase in fluorescence intensity at 0.5 to 1 times of MIC by DiSC3-5 dye based fluorescence method; type: subcellular
[19] = […] activity against LPS-induced human PBMC assessed as increase in cell number by measuring rise in cell proliferation percentage at 12.5 uM measured after 12 hrs by lymphocyte proliferation assay (12 hrs incubated Rvb = 478.774%); type: functional
Escherichia coli [20] = test: Induction of morphological changes in Escherichia coli assessed as cell blebbing at MIC concentration incubated for 60 mins by SEM analysis; type: functional, organism-based
Klebsiella pneumoniae [21] = test: Antibiofilm activity against preformed biofilm in Klebsiella pneumoniae assessed as decrease in cell viability at MIC incubated overnight by MTT assay relative to control; type: functional
Escherichia coli [22] = test: Induction of morphological changes in Escherichia coli at MIC concentration incubated for 6 hrs by SEM analysis; type: functional, organism-based
U-937 [23] = test: Immunomodulatory activity in human U-937 cells assessed as reduction in LPS-induced TNF-alpha expression level incubated for 24 hrs by radioimmunoprecipitation based dot-plot analysis; type: functional, cell-based; details: dose 5-10 µM
Cell membrane [24] = test: Induction of outer membrane permeabilization in methicillin-resistant Staphylococcus aureus at 0.5 to 1 times of MIC incubated for 5 to 20 mins by fluorescence based NPN uptake assay; type: subcellular; details: time 5-20 min
[25] = Cytotoxicity against human MCF7 cells assessed as cell viability at 25 uM incubated for 24 hrs by MTT assay relative to control; type: toxicity, cell-based; details: read-out: Activity
Klebsiella pneumoniae [26] = test: Induction of morphological changes in carbapenem resistant Klebsiella pneumoniae ATCC BAA-1705 assessed as membrane damage at MIC concentration incubated for 60 mins by SEM analysis; type: functional, organism-based
Klebsiella pneumoniae [27] = test: Antibacterial activity against carbapenem resistant Klebsiella pneumoniae ATCC BAA-1705 assessed as inhibition of bacterial growth incubated for 8 hrs at 1.25 to 40 uM by microtiter plate reader analysis; type: functional, organism-based; details: dose 1.25-40 µM
Staphylococcus aureus [28] = test: Antibacterial activity against patient-derived methicillin-resistant Staphylococcus aureus assessed as inhibition of bacterial growth incubated for 24 hrs by CLSI protocol based microdilution method; type: functional
Escherichia coli [29] = test: Antibacterial activity against Escherichia coli assessed as cell division block by measuring cellular elongation at 0.5 to 1 times of MIC incubated for 30 mins by SYTO9/PI staining based fluorescence microscopic analysis; type: functional, organism-based
Pseudomonas aeruginosa [30] = test: Antibiofilm activity against Pseudomonas aeruginosa assessed as clearance of preformed biofilm at 1 times of MIC incubated for 24 hrs by CV staining based analysis relative to control; type: functional
[31] = Stability in human serum assessed as intact peptide remaining at 1 mM measured after 24 hrs by HPLC analysis; type: ADME, cell-free; details: read-out: Stability
Cell membrane [32] = test: Induction of cytoplasmic membrane depolarization in Pseudomonas aeruginosa assessed as increase in fluorescence intensity at 0.5 to 1 times of MIC by DiSC3-5 dye based fluorescence method; type: subcellular
Pseudomonas aeruginosa [33] = test: Antibacterial activity against Pseudomonas aeruginosa assessed as inhibition of bacterial growth at 1.25 to 40 uM incubated for 8 hrs by microtiter plate reader analysis; type: functional, organism-based; details: dose 1.25-40 µM
Klebsiella pneumoniae [34] = test: Induction of morphological changes in carbapenem resistant Klebsiella pneumoniae ATCC BAA-1705 assessed as inhibition of cell division by measuring elongated cells at MIC concentration incubated for 60 mins by SEM analysis; type: functional, organism-based
Escherichia coli [35] = test: Antibacterial activity against Escherichia coli assessed as cell division block by measuring bacterial filamentation at 0.5 to 1 times of MIC incubated for 30 mins by SYTO9/PI staining based fluorescence microscopic analysis; type: functional, organism-based
Klebsiella pneumoniae [36] = test: Antibiofilm activity against Klebsiella pneumoniae in the presence of Na+; type: functional, organism-based
Pseudomonas aeruginosa [37] = test: Induction of morphological changes in Pseudomonas aeruginosa at MIC concentration incubated for 60 mins by SEM analysis; type: functional, organism-based

H-FLPIIKWVKKFFWRWR-OH
Activity (Klebsiella pneumoniae [1]): Active
Activity (Rattus norvegicus): Active
Activity (Cell membrane [2]): Active
Activity (Staphylococcus aureus [3]): Active
Activity (Staphylococcus aureus [4]): Active
Activity (Escherichia coli [5]): Active
Activity (Pseudomonas aeruginosa [6]): Active
Activity (Cell membrane [7]): Active
Activity (Klebsiella pneumoniae [8]): 79.96%
Activity (Escherichia coli [9]): Active
Activity (U-937 [10]): Active
Activity (Escherichia coli [11]): Active
Activity (Staphylococcus aureus [12]): Active
viability at 24 h, 12.5 µM [13]: > 90%
Activity (Pseudomonas aeruginosa [14]): Active
Activity (Staphylococcus aureus [15]): 62.7%
Activity (Staphylococcus aureus [16]): Active
Activity (Pseudomonas aeruginosa [17]): ~53%
Activity (Cell membrane [18]): Active
Activity [19]: 52.357%
Activity (Escherichia coli [20]): Active
Activity (Klebsiella pneumoniae [21]): 51.78%
Activity (Escherichia coli [22]): Active
Activity (U-937 [23]): Dose-Dependent Effect
Activity (Cell membrane [24]): Active
viability at 24 h, 25 µM [25]: 63.8%
Activity (Klebsiella pneumoniae [26]): Active
Activity (Klebsiella pneumoniae [27]): Active
MIC (Staphylococcus aureus [28]): 6 µM
Activity (Escherichia coli [29]): Active
Activity (Pseudomonas aeruginosa [30]): ~56%
remaining at 24 h, 1000 µM [31]: 47.1%
Activity (Cell membrane [32]): Active
Activity (Pseudomonas aeruginosa [33]): Active
Activity (Klebsiella pneumoniae [34]): Active
Activity (Escherichia coli [35]): Active
Activity (Klebsiella pneumoniae [36]): Active
Activity (Pseudomonas aeruginosa [37]): Active

Source: ChEMBL document CHEMBL5360649, “Potential Broad-Spectrum Antimicrobial, Wound Healing, and Disinfectant Cationic Peptide Crafted from Snake Venom” (J Med Chem, 2023)
